Results on 13 compounds are retold here after patent publication US10189863B2, “5,6-dihydro-4H-benzo[b]thieno-[2,3-d]azepine derivatives” (PULMOCIDE LIMITED, priority 2014, dated 2019).

Series [1] has as its system RSV A2 strain. Put plainly: Assessment of RSV induced CPE in HEp2 cells (RSV A2 strain). The note with it: human respiratory syncytial virus, HEp2 cells; for IC50: HEp-2, 120 h, 1 MOI, 5 days, read-out: RSV A2 CPE IC50; for inhibition at 0.01 µg/mL / inhibition at 0.1 µg/mL: HEp-2; for inhibition at 0.01 µg/mL: Inhibition (%) at 0.01 μg/mL; for inhibition at 0.1 µg/mL: Inhibition (%) at 0.1 μg/mL, read-out: RSV A2 CPE % Inhibition. It is filed as cell-based. The method, then:
(§1) Assessment of RSV Induced CPE in HEp2 Cells
(§2) HEp2 cells were seeded (10^3/well/50 μL) in 384-well plates (Catalogue number 353962, BD Falcon, Oxford, UK) in […] containing 2 mM L-glutamine and 1 mM sodium pyruvate one day before infection. RSV A2 strain (#0709161v, NCPV, Public Health England, Wiltshire) or RSV B Washington strain (VR-1580, ATCC, Manassas, Va. 20108) virus solutions were prepared in serum free-DMEM with 2 mM L-glutamine and 1 mM sodium pyruvate, and then added (50 μL/well) to achieve a final virus concentration of 1 MOI. Simultaneously test compounds (0.5 μL DMSO solution) were added to 100 μL of HEp2 cell culture with virus solution to provide a final DMSO solution of 0.5%. Plates were incubated (37° C./5% CO2) for 5 days for studies using RSV A2 strain or 6 days for those using RSV B strain, and then resazurin sodium salt (5 μL of 0.03% solution; Sigma-Aldrich, Dorset, UK) was added to each well and the plate incubated for a further 6 hr (37° C./5% CO2). The fluorescence of each well [545 nm (excitation)/590 nm (emission)] was determined using a multi-scanner (Clariostar: BMG, Buckinghamshire, UK). The percentage inhibition for each well was calculated and the IC50, IC75 and IC90 values were calculated from the concentration-response curve generated for each test compound.

Series [2] deals with RSV B Washington strain. In words: Assessment of RSV induced CPE in HEp2 cells (RSV B Washington strain). Format: cell-based. The note with it: human respiratory syncytial virus, HEp2 cells; for IC50: HEp-2, 144 h, 1 MOI, 6 days, read-out: RSV B CPE IC50; for inhibition at 1 µg/mL: HEp-2, Inhibition (%) at 1 μg/mL, read-out: RSV B CPE % Inhibition. The method, then: as §1, §2

Series [3] is described as follows: Cell viability: resazurin assay. It is filed as cell-based, human. The note with it: human, HEp2 cells. The method, then:
Cell Viability: Resazurin Assay
HEp2 cells were seeded in 384-well plates (10^3/well/50 μL; BD Falcon Ref 353962) in FBS DMEM (5%, containing 2 mM L-glutamine and 1 mM sodium pyruvate) one day before experimentation. Serum-free DMEM (50 μL) was added to test wells while for control wells the media was removed and sterile water (100 μL) was added. Test compounds (0.5 μL DMSO solution) were added to give a final DMSO concentration of 0.5%. Hep2 cells were incubated with each test compound for 5 days (37° C./5% CO2 in 5% FBS) and then resazurin stock solution (5 μL; 0.03%) was added to each well and the plate incubated for a further 6 hr (37° C./5% CO2). The fluorescence of each well at 545 nm (excitation) and 590 nm (emission) was determined using a multi-scanner (Clariostar: BMG Labtech). The percentage loss of cell viability was calculated for each well relative to vehicle (0.5% DMSO) treatment.
Any apparent increase in cell viability associated with test compound treatment relative to vehicle is consequently tabulated as a negative percentage. Where appropriate, a CC50 value was calculated from the concentration-response curve generated from the concentration-response curve for each test compound.
A general note: Alamar Blue is a resazurin reagent that responds to reducing activity.

Broadly, the IC50 is the concentration needed to halve the response being measured. As usually defined, the inhibition is the drop in the measured response relative to a control, in per cent. For orientation: CC50 means the concentration at which the toxic effect on the cells reaches its halfway point. Low readings indicate harm at low concentration, high ones better tolerance by the cells. For the compound `Cc1cnc(N2CCC3(CC2)COC3)c(C(=O)Nc2ccc(C(=O)N3CCc4cc(C(=O)Nc5c(F)cccc5F)sc4-c4ccccc43)cc2)c1` [Example 92, N-(2,6-difluorophenyl)-6-(4-(5-methyl-2-(2-oxa-7-aza-spiro[3.5]nonan-7-yl)nicotinamido)benzoyl)-5,6-dihydro-4H-benzo[b]thieno[2,3-d]azepine-2-carboxamide], in series [1], the IC50 turned out to be 0.17 nM and 0.01 µg/mL produced 93% inhibition. Moreover, in series [2], the IC50 is 60.8 nM and the inhibition at 1 µg/mL came to 100%. This compound also gave a CC50 at 5 days in series [3] of over 13900 nM.

In the case of `Cc1cccc(F)c1NC(=O)c1cc2c(s1)-c1ccccc1N(C(=O)c1ccc(NC(=O)c3cc(C4CC4)cnc3N3CC4(CCOCC4)C3)cc1)CC2` [Example 11, 6-(4-(5-Cyclopropyl-2-(7-oxa-2-azaspiro[3,5]nonan-2-yl)nicotinamido)benzoyl)-N-(2-fluoro-6-methylphenyl)-5,6-dihydro-4H-benzo[b]thieno[2,3-d]azepine-2-carboxamide], in series [1], the IC50 stood at 0.28 nM and the inhibition at 0.1 µg/mL stood at 93%. In addition, in series [2], the IC50 worked out at 25.9 nM and the inhibition at 1 µg/mL stood at 95%. This compound also registered a CC50 at 5 days in series [3] of over 13500 nM.

Turning to `O=C(Nc1c(F)cccc1Cl)c1cc2c(s1)-c1ccccc1N(C(=O)c1ccc(NC(=O)c3cccnc3N3CC4(CCOCC4)C3)cc1F)CC2` [Example 31, 6-(4-(2-(7-oxa-2-azaspiro[3.5]nonan-2-yl)nicotinamido)-2-fluorobenzoyl)-N-(2-chloro-6-fluorophenyl)-5,6-dihydro-4H-benzo[b]thieno[2,3-d]azepine-2-carboxamide], in series [1], the IC50 is 0.1 nM and the inhibition at 0.1 µg/mL came out at 100%. Further, in series [2], the IC50 came to 49.6 nM and the inhibition at 1 µg/mL was 90%. In addition, the CC50 at 5 days in series [3] was over 13500 nM.

In the case of `COCc1cnc(N2CC3(CCOCC3)C2)c(C(=O)Nc2ccc(C(=O)N3CCc4cc(C(=O)Nc5c(F)cccc5Cl)sc4-c4ccccc43)cc2)c1` [Example 67, N-(2-chloro-6-fluorophenyl)-6-(4-(5-(methoxymethyl)-2-(7-oxa-2-azaspiro[3.5]nonan-2-yl)nicotinamido)benzoyl)-5,6-dihydro-4H-benzo[b]thieno[2,3-d]azepine-2-carboxamide], in series [1], the IC50 is 0.17 nM and the inhibition at 0.01 µg/mL amounted to 100%. Moreover, in series [2], the IC50 was found to be 6.5 nM and the inhibition at 1 µg/mL was determined as 100%. In addition, the CC50 at 5 days in series [3] is over 13100 nM.

For `Cc1cccc(F)c1NC(=O)c1cc2c(s1)-c1ccccc1N(C(=O)c1ccc(NC(=O)c3cc(Cl)cnc3N3CC4(CCOCC4)C3)cc1)CC2` [Example 69, 6-(4-(5-chloro-2-(7-oxa-2-azaspiro[3.5]nonan-2-yl)nicotinamido)benzoyl)-N-(2-fluoro-6-methylphenyl)-5,6-dihydro-4H-benzo[b]thieno[2,3-d]azepine-2-carboxamide], in series [1], the IC50 turned out to be 0.45 nM and at 0.01 µg/mL the inhibition was 96%. Besides, in series [2], the IC50 was 15.3 nM and the inhibition at 1 µg/mL is 100%. Moreover, the CC50 at 5 days in series [3] is over 13600 nM.

In the case of `C#Cc1cccc(F)c1NC(=O)c1cc2c(s1)-c1ccccc1N(C(=O)c1ccc(NC(=O)c3cc(C)cnc3N3CC4(CCOCC4)C3)cc1)CC2` [Example 37, N-(2-ethynyl-6-fluorophenyl)-6-(4-(5-methyl-2-(7-oxa-2-azaspiro[3.5]nonan-2-yl)nicotinamido)benzoyl)-5,6-dihydro-4H-benzo[b]thieno[2,3-d]azepine-2-carboxamide], in series [1], the IC50 came out at 0.15 nM and the inhibition at 0.01 µg/mL stood at 100%. Moreover, in series [2], the IC50 amounted to 7.2 nM and the inhibition at 1 µg/mL stood at 100%. This compound also came in with a cytotoxic concentration (CC50) at 5 days in series [3] of over 13800 nM.

With `C#Cc1ccc(NC(=O)c2cc3c(s2)-c2ccccc2N(C(=O)c2ccc(NC(=O)c4cccnc4N4CC5(CCOCC5)C4)cc2)CC3)cc1` [Example 18, 6-(4-(2-(7-oxa-2-azaspiro[3.5]nonan-2-yl)nicotinamido)benzoyl)-N-(4-ethynylphenyl)-5,6-dihydro-4H-benzo[b] thieno[2,3-d]azepine-2-carboxamide], in series [1], the IC50 turned out to be 0.16 nM and the inhibition at 0.1 µg/mL was 75%. In series [2], the IC50 was over 1440 nM and the inhibition at 1 µg/mL worked out at 18%. The compound also returned a cytotoxic concentration (CC50) at 5 days in series [3] of over 14400 nM.

For `O=C(Nc1c(F)cc(F)cc1F)c1cc2c(s1)-c1ccccc1N(C(=O)c1ccc(NC(=O)c3cccnc3N3CC4(CCOCC4)C3)cc1)CC2` [Example 28, 6-(4-(2-(7-oxa-2-azaspiro[3.5]nonan-2-yl)nicotinamido)benzoyl)-N-(2,4,6-trifluorophenyl)-5,6-dihydro-4H-benzo[b] thieno[2,3-d]azepine-2-carboxamide], in series [1], the concentration for half-maximal inhibition (IC50) turned out to be 0.17 nM and the inhibition at 0.1 µg/mL was 96%. Moreover, in series [2], the IC50 came out at 41.4 nM and the inhibition at 1 µg/mL is 66%. Further, the CC50 at 5 days in series [3] was over 13800 nM.

Consider `O=C(Nc1c(F)cccc1F)c1cc2c(s1)-c1ccccc1N(C(=O)c1ccc(NC(=O)c3cc4sccc4nc3N3CC4(CCOCC4)C3)cc1)CC2` [Example 13, 6-(4-(5-(7-Oxa-2-azaspiro[3.5]nonan-2-yl)thieno[3,2-b]pyridine-6-carboxamido)benzoyl)-N-(2,6-difluorophenyl)-5,6-dihydro-4H-benzo[b]thieno[2,3-d]azepine-2-carboxamide], for which, in series [1], the IC50 was determined as 0.45 nM and the inhibition at 0.01 µg/mL is 100%. For the same compound, in series [2], the IC50 is 0.96 nM and the inhibition at 1 µg/mL amounted to 100%. The same compound showed a CC50 at 5 days in series [3] of over 13100 nM.

As for `Cc1cccc(C)c1NC(=O)c1cc2c(s1)-c1ccccc1N(C(=O)c1ccc(NC(=O)c3cccnc3N3CC4(CCOCC4)C3)cc1)CC2` [Example 24, 6-(4-(2-(7-oxa-2-azaspiro[3.5]nonan-2-yl)nicotinamido)benzoyl)-N-(2,6-dimethylphenyl)-5,6-dihydro-4H-benzo[b] thieno[2,3-d]azepine-2-carboxamide], in series [1], the IC50 was 0.57 nM and the inhibition at 0.1 µg/mL was determined as 88%. In addition, in series [2], the IC50 stood at 19.6 nM and the inhibition at 1 µg/mL worked out at 65%. In series [3], this compound came in with a CC50 at 5 days of over 14300 nM.

On to `C#Cc1cnc(N2CC3(CCOCC3)C2)c(C(=O)Nc2ccc(C(=O)N3CCc4cc(C(=O)Nc5c(F)cccc5Cl)sc4-c4ccccc43)cc2)c1` [Example 66, N-(2-chloro-6-fluorophenyl)-6-(4-(5-ethynyl-2-(7-oxa-2-azaspiro[3.5]nonan-2-yl)nicotinamido)benzoyl)-5,6-dihydro-4H-benzo[b]thieno[2,3-d]azepine-2-carboxamide], for which, in series [1], the IC50 turned out to be 0.15 nM and the inhibition at 0.01 µg/mL came to 95%. In series [2], the half-inhibitory concentration (IC50) was 4.8 nM and the inhibition at 1 µg/mL was determined as 95%. In series [3], the CC50 at 5 days was over 13400 nM.

For the compound `Cc1ccc(C(=O)Nc2ccc(C(=O)N3CCc4cc(C(=O)Nc5c(F)cccc5F)sc4-c4ccccc43)cc2)c(N2CC3(CCOCC3)C2)n1` [Example 49, N-(2,6-difluorophenyl)-6-(4-(6-methyl-2-(7-oxa-2-aza-spiro[3.5]nonan-2-yl)nicotinamido)benzoyl)-5,6-dihydro-4H-benzo[b]thieno[2,3-d]azepine-2-carboxamide], in series [1], the IC50 is 0.13 nM and the inhibition at 0.1 µg/mL came out at 100%. In addition, in series [2], the IC50 came out at 1.3 nM and the inhibition at 1 µg/mL was 100%. This compound displayed a half-maximal cytotoxic concentration (CC50) at 5 days in series [3] of over 13900 nM.

With `O=C(Nc1ccc(F)cc1F)c1cc2c(s1)-c1ccccc1N(C(=O)c1ccc(NC(=O)c3cc4ccccc4nc3N3CC4(CCOCC4)C3)cc1)CC2` [Example 85, 6-(4-(2-(7-oxa-2-azaspiro[3.5]nonan-2-yl)quinoline-3-carboxamido)benzoyl)-N-(2,4-difluorophenyl)-5,6-dihydro-4H-benzo[b]thieno[2,3-d]azepine-2-carboxamide], in series [1], the IC50 came out at 3.5 nM and the inhibition at 0.1 µg/mL was 95%. Besides, in series [2], the IC50 was 13.5 nM and the inhibition at 1 µg/mL was determined as 91%. In addition, the 50% cytotoxic concentration (CC50) at 5 days in series [3] was over 13200 nM.
